Measurements published in ChEMBL document CHEMBL3399921, “Novel 2-(2-phenalkyl)-1H-benzo[d]imidazoles as antitubercular agents. Synthesis, biological evaluation and structure-activity relationship” (Bioorg Med Chem, 2015).
≈ marks a conversion by molar mass, not a printed value.

What was measured:
[1] = Cytotoxicity against mouse B16F10 cells after 7 days by MTT/SRB assay; format: cell-based; details: B16-F10, 168 h
[2] = Cytotoxicity against HEK cells after 7 days by MTT/SRB assay; format: cell-based; details: Homo sapiens, HEK293, 168 h
[3] = system: Mycobacterium tuberculosis; experiment: Tuberculostatic activity against Mycobacterium tuberculosis Spec. 210 by two-fold classical test-tube method; format: functional
[4] = Cytotoxicity against neonatal HDF cells after 7 days by MTT/SRB assay; format: cell-based; details: Homo sapiens, 168 h
[5] = Selectivity ratio of IC50 for mouse B16F10 cells to MIC for Mycobacterium tuberculosis Spec. 210; format: ADME, cell-based, B16-F10
[6] = system: Mycobacterium tuberculosis; experiment: Tuberculostatic activity against Mycobacterium tuberculosis H37Rv by two-fold classical test-tube method; format: functional
[7] = Selectivity ratio of IC50 for neonatal HDF cells to MIC for Mycobacterium tuberculosis Spec. 210; format: ADME, cell-based; details: human
[8] = Selectivity ratio of IC50 for mouse B16F10 cells to MIC for Mycobacterium tuberculosis Spec. 192; format: ADME, cell-based, B16-F10
[9] = system: Mycobacterium tuberculosis; experiment: Tuberculostatic activity against Mycobacterium tuberculosis Spec. 192 by two-fold classical test-tube method; format: functional
[10] = Selectivity ratio of IC50 for neonatal HDF cells to MIC for Mycobacterium tuberculosis Spec. 192; format: ADME, cell-based; details: human
[11] = Selectivity ratio of IC50 for mouse B16F10 cells to MIC for Mycobacterium tuberculosis H37Rv; format: ADME, cell-based, B16-F10
[12] = Selectivity ratio of IC50 for neonatal HDF cells to MIC for Mycobacterium tuberculosis H37Rv; format: ADME, cell-based; details: human

Row | SMILES | MIC [3] | MIC [6] | MIC [9] | also measured
1 | Cc1cc2nc(CCc3cc(Cl)cc(Cl)c3)[nH]c2cc1C | 5 µM (≈ 1.6 µg/mL) | 2.5 µM (≈ 0.798 µg/mL) | 5 µM (≈ 1.6 µg/mL) | IC50 [1]: 28 µM; IC50 [2]: 7.8 µM; IC50 [4]: 58 µM; selectivity ratio [5]: 6; selectivity ratio [7]: > 11; selectivity ratio [8]: 6; selectivity ratio [10]: > 11
2 | Nc1c(NC(=O)CCc2ccccc2)cc(Cl)cc1[N+](=O)[O-] | 320 µM (≈ 102 µg/mL) | 320 µM (≈ 102 µg/mL) | 320 µM (≈ 102 µg/mL) | 
3 | Nc1c(NC(=O)/C=C/c2ccccc2)cc(Cl)cc1[N+](=O)[O-] | 320 µM (≈ 102 µg/mL) | 320 µM (≈ 102 µg/mL) | 320 µM (≈ 102 µg/mL) | 
4 | Nc1c(NC(=O)CCc2cc(Cl)cc(Cl)c2)cc(Cl)cc1[N+](=O)[O-] | 65 µM (≈ 25.3 µg/mL) | 8 µM (≈ 3.11 µg/mL) | 8 µM (≈ 3.11 µg/mL) | selectivity ratio [11]: 7.5; IC50 [1]: 59 µM; IC50 [2]: 5.1 µM; selectivity ratio [12]: 10; IC50 [4]: 80 µM; selectivity ratio [8]: 7.5; selectivity ratio [10]: 10
5 | O=[N+]([O-])c1cc(Cl)cc2[nH]c(CCc3ccccc3)nc12 | 330 µM (≈ 99.6 µg/mL) | 330 µM (≈ 99.6 µg/mL) | 330 µM (≈ 99.6 µg/mL) | 
6 | O=[N+]([O-])c1cc(Cl)cc2[nH]c(/C=C/c3ccccc3)nc12 | 340 µM (≈ 102 µg/mL) | 170 µM (≈ 51 µg/mL) | 170 µM (≈ 51 µg/mL) | 
7 | O=[N+]([O-])c1cc(Cl)cc2[nH]c(CCc3cc(Cl)cc(Cl)c3)nc12 | 271 µM (≈ 100 µg/mL) | 68 µM (≈ 25.2 µg/mL) | 68 µM (≈ 25.2 µg/mL) | 
8 | c1ccc(CCc2nc3cc4ccccc4cc3[nH]2)cc1 | 370 µM (≈ 101 µg/mL) | 370 µM (≈ 101 µg/mL) | 370 µM (≈ 101 µg/mL) | 
9 | C(=C\c1nc2cc3ccccc3cc2[nH]1)/c1ccccc1 | 93 µM (≈ 25.1 µg/mL) | 93 µM (≈ 25.1 µg/mL) | 93 µM (≈ 25.1 µg/mL) | 
10 | Clc1cc(Cl)cc(CCc2nc3cc4ccccc4cc3[nH]2)c1 | 18 µM (≈ 6.14 µg/mL) | 18 µM (≈ 6.14 µg/mL) | 18 µM (≈ 6.14 µg/mL) | 
11 | Cc1cc2nc(CCc3ccccc3)[nH]c2cc1C | 6.3 µM (≈ 1.58 µg/mL) | 6.3 µM (≈ 1.58 µg/mL) | 6.3 µM (≈ 1.58 µg/mL) | IC50 [1]: 3.9 µM; IC50 [2]: 2.5 µM; IC50 [4]: 7.9 µM
12 | Cc1cc2nc(/C=C/c3ccccc3)[nH]c2cc1C | 25 µM (≈ 6.21 µg/mL) | 25 µM (≈ 6.21 µg/mL) | 13 µM (≈ 3.23 µg/mL) | 
13 | Fc1ccc2[nH]c(CCc3ccccc3)nc2c1 | 208 µM (≈ 50 µg/mL) | 104 µM (≈ 25 µg/mL) | 208 µM (≈ 50 µg/mL) | 
14 | Fc1ccc2[nH]c(/C=C/c3ccccc3)nc2c1 | 105 µM (≈ 25 µg/mL) | 210 µM (≈ 50 µg/mL) | 210 µM (≈ 50 µg/mL) | 
15 | Fc1ccc2[nH]c(CCc3cc(Cl)cc(Cl)c3)nc2c1 | 320 µM (≈ 98.9 µg/mL) | 320 µM (≈ 98.9 µg/mL) | 320 µM (≈ 98.9 µg/mL) | 
16 | Cc1cc2nc(CCc3ccccc3)n(S(C)(=O)=O)c2cc1C | 76 µM (≈ 25 µg/mL) | 76 µM (≈ 25 µg/mL) | 76 µM (≈ 25 µg/mL) | 
17 | Cc1cc2nc(/C=C/c3ccccc3)n(S(C)(=O)=O)c2cc1C | 310 µM (≈ 101 µg/mL) | 310 µM (≈ 101 µg/mL) | 310 µM (≈ 101 µg/mL) | 
18 | Cc1cc2nc(CCc3cc(Cl)cc(Cl)c3)n(S(C)(=O)=O)c2cc1C | 32 µM (≈ 12.7 µg/mL) | 32 µM (≈ 12.7 µg/mL) | 63 µM (≈ 25 µg/mL) | 
19 | CS(=O)(=O)n1c(CCc2ccccc2)nc2cc(F)ccc21 | 314 µM (≈ 100 µg/mL) | 314 µM (≈ 100 µg/mL) | 314 µM (≈ 100 µg/mL) | 
20 | CS(=O)(=O)n1c(/C=C/c2ccccc2)nc2cc(F)ccc21 | 158 µM (≈ 50 µg/mL) | 158 µM (≈ 50 µg/mL) | 158 µM (≈ 50 µg/mL) | 
21 | CS(=O)(=O)n1c(/C=C/c2cc(Cl)cc(Cl)c2)nc2cc(F)ccc21 | 130 µM (≈ 50.1 µg/mL) | 130 µM (≈ 50.1 µg/mL) | 259 µM (≈ 99.8 µg/mL) | 
22 | Cc1cc2nc(CCc3ccccc3)n(S(=O)(=O)c3ccccc3)c2cc1C | 128 µM (≈ 50 µg/mL) | 128 µM (≈ 50 µg/mL) | 64 µM (≈ 25 µg/mL) | 
23 | Cc1cc2nc(/C=C/c3ccccc3)n(S(=O)(=O)c3ccccc3)c2cc1C | 258 µM (≈ 100 µg/mL) | 258 µM (≈ 100 µg/mL) | 258 µM (≈ 100 µg/mL) | 
24 | Cc1cc2nc(CCc3cc(Cl)cc(Cl)c3)n(S(=O)(=O)c3ccccc3)c2cc1C | 55 µM (≈ 25.3 µg/mL) | 55 µM (≈ 25.3 µg/mL) | 55 µM (≈ 25.3 µg/mL) | 
25 | O=S(=O)(c1ccccc1)n1c(CCc2ccccc2)nc2cc(F)ccc21 | 263 µM (≈ 100 µg/mL) | 263 µM (≈ 100 µg/mL) | 263 µM (≈ 100 µg/mL) | 
26 | O=S(=O)(c1ccccc1)n1c(/C=C/c2ccccc2)nc2cc(F)ccc21 | 264 µM (≈ 99.9 µg/mL) | 132 µM (≈ 50 µg/mL) | 132 µM (≈ 50 µg/mL) | 
27 | O=S(=O)(c1ccccc1)n1c(CCc2cc(Cl)cc(Cl)c2)nc2cc(F)ccc21 | 56 µM (≈ 25.2 µg/mL) | 56 µM (≈ 25.2 µg/mL) | 112 µM (≈ 50.3 µg/mL) | 
28 | NNC(=O)c1ccncc1 [ISONIAZID] | 182 µM (≈ 25 µg/mL) | 91 µM (≈ 12.5 µg/mL) | 91 µM (≈ 12.5 µg/mL) | 
29 | NC(=O)c1cnccn1 [PYRAZINAMIDE] | 3250 µM (≈ 400 µg/mL) | 203 µM (≈ 25 µg/mL) | 203 µM (≈ 25 µg/mL) | 
30 | CO[C@H]1/C=C/O[C@@]2(C)Oc3c(C)c(O)c4c(O)c(c(/C=N/N5CCN(C)CC5)c(O)c4c3C2=O)NC(=O)/C(C)=C\C=C\[C@H](C)[C@H](O)[C@@H](C)[C@@H](O)[C@@H](C)[C@H](OC(C)=O)[C@@H]1C [RIFAMPIN] | 2.8 µM (≈ 2.3 µg/mL) | 1.4 µM (≈ 1.15 µg/mL) | 1.4 µM (≈ 1.15 µg/mL) | 
